Measured values published in patent EP4748833A1, “AMPK AGONIST AND USE THEREOF” (priority 2023, dated 2025).
Read-outs that look alike come from different tables or passages of the source.

Target: T1, AMPKα1β1γ1 (Homo sapiens, UniProt Q13131+Q9Y478)
T1 construct: purchased CARNA 02-113
Experiment: In vitro assay for AMPK (α1β1γ1) enzyme agonist activity (TR-FRET)
Format: biochemical
Conditions: for Emax: 1 h, read-out: Top value
Protocol: Test compounds were dissolved in DMSO to prepare 10 mM stock solution, which was then diluted to the predetermined test concentrations using kinase buffer (50 mM HEPES, 1 mM EDTA, 10 mM MgCl2, 0.01% Brij-35, pH = 7.5). Into a 384-well plate were added 5 µL of AMPKα1β1γ1 (CARNA, 02-113), 2.5 µL of the diluted test compound solution, and 2.5 µL of a mixture of Ulight-CRBN and ATP, resulting in the following final concentrations: AMPKα1β1γ1 at 1.6 mg/L, Ulight-CRBN at 5 nM, and ATP at 0.1 mM. The components were mixed evenly, and reacted at room temperature for 1 hour. Subsequently, 5 µL of LANCE Detection Buffer (CR97-100, PerkinElmer) containing 40 mM EDTA was added. After standing for 5 minutes, 5 µL of 4× Eu-anti-phospho-CREB Antibody (TRF0200-M, PerkinElmer) was added, and the mixture was allowed to stand at room temperature for 1 h. The values of samples in each well were read using a microplate reader in TR-FRET mode (excitation wavelength: 320 nm; emission wavelengths: 665 nm and 615 nm). By comparing the values with those of the blank control group (1% DMSO) and the positive control group (1 µM A769662), the relative activity of AMPKα1β1γ1 at each test compound concentration (4.57 nM, 13.72 nM, 41.15 nM, 123.46 nM, 370.37 nM, 1111.11 nM, 3333.33 nM, and 10000 nM) was calculated, with the activity of 1 µM A769662 set as 100%. The data were analysed in GraphPad Prism 9 using a Dose-response-Stimulation four-parameter regression model to obtain the Top and EC50 values for the test compounds. [drawing 522] has a structure of A769662.

[1] = AMPKα1β1γ1 1.6 mg/L, ATP 0.1 mM, 1 hour at room temperature, four-parameter regression, read-out: EC50

T1 sequence (Q13131 whole entry): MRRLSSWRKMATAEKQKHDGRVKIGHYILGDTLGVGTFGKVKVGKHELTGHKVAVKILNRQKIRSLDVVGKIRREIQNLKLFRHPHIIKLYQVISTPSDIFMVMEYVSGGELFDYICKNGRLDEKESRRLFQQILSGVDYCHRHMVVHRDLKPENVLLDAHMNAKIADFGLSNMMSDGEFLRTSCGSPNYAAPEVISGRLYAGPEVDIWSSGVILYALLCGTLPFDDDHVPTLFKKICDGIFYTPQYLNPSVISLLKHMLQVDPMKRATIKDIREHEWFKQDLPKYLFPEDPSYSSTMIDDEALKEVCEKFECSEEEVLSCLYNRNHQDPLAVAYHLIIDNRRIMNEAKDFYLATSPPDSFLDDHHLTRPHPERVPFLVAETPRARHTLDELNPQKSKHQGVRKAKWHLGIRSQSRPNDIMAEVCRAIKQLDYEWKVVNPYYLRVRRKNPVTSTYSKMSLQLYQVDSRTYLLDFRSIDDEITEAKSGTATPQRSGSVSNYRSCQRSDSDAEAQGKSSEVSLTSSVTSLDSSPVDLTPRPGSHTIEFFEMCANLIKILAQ
T1 sequence (Q9Y478 whole entry): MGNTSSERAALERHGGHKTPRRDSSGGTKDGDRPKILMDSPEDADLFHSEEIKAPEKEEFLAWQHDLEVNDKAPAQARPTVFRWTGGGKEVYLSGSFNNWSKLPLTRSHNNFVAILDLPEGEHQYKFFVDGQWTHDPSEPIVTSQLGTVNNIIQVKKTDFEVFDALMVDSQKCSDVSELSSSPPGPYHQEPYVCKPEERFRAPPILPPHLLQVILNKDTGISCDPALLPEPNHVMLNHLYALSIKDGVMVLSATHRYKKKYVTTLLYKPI
T1 sequence (P54619 whole entry partner): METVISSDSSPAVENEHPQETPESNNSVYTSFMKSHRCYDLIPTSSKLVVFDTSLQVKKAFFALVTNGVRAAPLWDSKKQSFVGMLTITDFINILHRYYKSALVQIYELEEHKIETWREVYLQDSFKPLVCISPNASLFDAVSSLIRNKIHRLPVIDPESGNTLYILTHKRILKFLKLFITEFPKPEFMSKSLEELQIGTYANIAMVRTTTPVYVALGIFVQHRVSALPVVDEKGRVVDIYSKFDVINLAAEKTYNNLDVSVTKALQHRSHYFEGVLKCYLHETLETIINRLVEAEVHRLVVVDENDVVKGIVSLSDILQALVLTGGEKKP

SMILES | Emax [%] | EC50 [1] [nM] | EC50 [nM]
O=C(NCc1ccno1)c1c[nH]c2cc(Cl)c(-c3ccc(C4(O)CCC4)cc3)cc12 [Compound 11] | 70 to 100 | 200 to 800 | 
CNC(=O)C(=O)c1c[nH]c2cc(Cl)c(-c3ccc(C4(CO)CC4)cc3)cc12 [Compound 18] | 50 to 70 | 200 to 800 | 
O=C(NCc1ccco1)c1c(O)[nH]c2cc(Cl)c(-c3ccc(C4(CO)CC4)cc3)cc12 [Compound 31] | > 100 | 200 to 800 | 
Cn1ccc2cc(-c3cc4c(C(=O)NCc5ncco5)c(O)[nH]c4cc3Cl)ccc21 [Compound 32] | 70 to 100 | 200 to 800 | 
CN(C(=O)c1c[nH]c2cc(Cl)c(-c3ccc(C4(CO)CC4)cc3)cc12)c1cc[nH]n1 [Compound 27] | > 100 |  | > 800
O=C(Nc1ncc[nH]1)c1c[nH]c2cc(Cl)c(-c3ccc(-c4ccccc4)cc3)cc12 [Compound 13] | > 100 | > 800 | 
O=C(NCC1COC1)c1c[nH]c2cc(Cl)c(-c3ccc(C4(O)CCC4)cc3)cc12 [Compound 10] | 50 to 70 | > 800 | 
O=C(Nc1ccn[nH]1)c1c[nH]c2cc(Cl)c(-c3ccc(C4(CO)CC4)cc3)cc12 [Compound 23] | > 100 | < 200 | 
O=C(NCc1ccco1)c1c(O)[nH]c2cc(Cl)c(-c3ccc(-c4ccccc4O)cc3)cc12 [Compound 37] | > 100 | 200 to 800 | 
CN(Cc1cccs1)C(=O)c1c[nH]c2cc(Cl)c(-c3ccc(C4(CO)CC4)cc3)cc12 [Compound 25] | < 50 |  | > 800
O=C(O)C(=O)c1c[nH]c2cc(Cl)c(-c3ccc(C4(O)CCC4)cc3)cc12 [Compound 2] | 70 to 100 | < 200 | 
O=C(NCc1cccs1)c1c[nH]c2cc(Cl)c(-c3ccc(C4(CO)CC4)cc3)cc12 [Compound 15] | > 100 | > 800 | 
O=C1Nc2cc(Cl)c(-c3ccc(C4(CO)CC4)cc3)cc2C1=CNCc1ccco1 [Compound 21] | < 50 | > 800 | 
O=C(NCc1ccco1)c1c[nH]c2cc(Cl)c(-c3ccc(-c4ccccc4O)cc3)cc12 [Compound 36] | 50 to 70 | < 200 | 
Cn1ccc2cc(-c3cc4c(C(=O)C(=O)O)c[nH]c4cc3Cl)ccc21 [Compound 5] | 70 to 100 | < 200 | 
O=C(O)C(=O)c1c[nH]c2cc(Cl)c(-c3ccc(C4(CO)CC4)cc3)cc12 [Compound 6] | > 100 | < 200 | 
Cn1ccc2cc(-c3cc4c(cc3Cl)NC(=O)C4(C)C(=O)NCc3ccco3)ccc21 (centres unmarked) [Compound 22] |  | > 800 | 

SMILES | Emax [%] | EC50 [1] [nM] | EC50 [nM]
O=C(Nc1ncco1)c1c[nH]c2cc(Cl)c(-c3ccc(-c4ccccc4)cc3)cc12 [Compound 24] | > 100 |  | > 800
O=C(NCc1ncco1)c1c[nH]c2cc(Cl)c(-c3ccc(C4(CO)CC4)cc3)cc12 [Compound 16] | 70 to 100 | 200 to 800 | 
O=C(O)Cc1c[nH]c2cc(Cl)c(-c3ccc(C4(O)CCC4)cc3)nc12 [Compound 1] | 50 to 70 | > 800 | 
O=C(NCc1ccccn1)c1c[nH]c2cc(Cl)c(-c3ccc(C4(O)CCC4)cc3)cc12 [Compound 9] | > 100 | > 800 | 
O=C(O)C(=O)c1c[nH]c2cc(Cl)c(-c3ccc(-c4ccccc4O)cc3)cc12 [Compound 4] | 50 to 70 | < 200 | 
O=C(Nc1cc[nH]n1)c1c[nH]c2cc(Cl)c(-c3ccc(-c4ccccc4O)cc3)cc12 [Compound 34] | > 100 |  | 200 to 800
O=C(NCc1cnoc1)c1c[nH]c2cc(Cl)c(-c3ccc(C4(O)CCC4)cc3)cc12 [Compound 12] | > 100 | > 800 | 
Cn1ccc2cc(-c3cc4c(C(=O)NCc5ccco5)c(O)[nH]c4cc3Cl)ccc21 [Compound 19] | > 100 | 200 to 800 | 
COC(=O)C(=O)c1c[nH]c2cc(Cl)c(-c3ccc(C4(CO)CC4)cc3)cc12 [Compound 17] | 70 to 100 | < 200 | 
COc1ccc(-c2cc3c(C(=O)C(=O)O)c[nH]c3cc2Cl)cc1 [Compound 7] | 70 to 100 | 200 to 800 | 
O=C(Nc1cc[nH]n1)c1c[nH]c2cc(Cl)c(-c3ccc(C4(O)CCC4)cc3)cc12 [Compound 33] | > 100 | 200 to 800 | 
O=C(O)C(=O)c1c[nH]c2cc(Cl)c(-c3ccc(C4(O)CCC4)cc3)nc12 [Compound 3] | 50 to 70 | > 800 | 
Cn1ccc2cc(-c3cc4c(C(=O)NCC(=O)O)c(O)[nH]c4cc3Cl)ccc21 [Compound 20] | > 100 | 200 to 800 | 
O=C(O)C(=O)c1c[nH]c2cc(Cl)c(-c3ccc(-c4ccccc4)cc3)cc12 [Compound 8] | < 50 | < 200 | 
O=C(NCc1nnn[nH]1)c1c[nH]c2cc(Cl)c(-c3ccc(C4(CO)CC4)cc3)cc12 [Compound 35] | > 100 | < 200 | 
O=C(NCc1ccco1)c1c[nH]c2cc(Cl)c(-c3ccc(C4(CO)CC4)cc3)cc12 [Compound 14] | > 100 | > 800 | 
